Assay [1] concerns tracheal rings of a rat. Description: Acetylcholine-induced contracture of trachea rings. The assay is classed as cell-based. As to conditions: acetylcholine 10 μM; for muscle relaxation effect on trachea rings: cumulative concentrations up to 200 μM, result in words. The procedure:
A preparation of trachea rings is used for observing the probable action of these powerful vasodilators in other smooth musculature tissues. FIG. 12 presents the typical record of the acetylcholine-induced trachea rings contracture (Ach, 10 μM) followed by exposure to rising cumulative concentrations of the L785 derivative up to 200 μM. A dose-dependent reduction may be noted in the amplitude of the acetylcholine-induced contracture.
The same protocol was used for the L786 derivative and the solvent (FIG. 13).

Assay [2] deals with soleus (SOL) muscle. Description: Electrically induced twitch amplitude in slow-fiber skeletal muscle (SOL). The assay is classed as cell-based, mice. The conditions noted are these: for SOL twitch amplitude 30 min-Washing (% of the control): 30 min after washing. The procedure:
(§1) Male mice weighing 22-28 g were sacrificed through cervical dislocation and the extensor digitorium longus (EDL) and soleus (SOL) muscles were dissected in a Ringer-Krebs solution, whose composition is given in Table 9, at room temperature. The muscles were placed in vertical chambers with a capacity of 10 ml, and were fixed by their ends to the stimulation electrode fixation rod and a power transducer (Grass FT03) for registering muscle twitches. The chamber solution was bubbled continuously with a carbogenic mixture (95% O2/5% CO2) and kept at a temperature of 37° C. The muscles were stimulated electrically through a stimulator (Grass S88) at a frequency of 0.2 Hz, at 37° C. After the stabilization of the muscle twitches (±30 minutes) a control record was taken in the absence of the drug, and subsequently rising concentrations (from 10 μM to 200 μM) of the L294 derivatives were added every ten minutes, diluted in DMSO. […] The signals recorded by the transducer were amplified (Cyberamp) and the isometric tension was digitized (Digidata 1322A) and stored on a computer. The screening and analysis of the experiment was handled through the use of the Axoscope 8.0 program. (Zapata-Sudo, 2003).
(§2) A measurement of the electrically-induced twitch amplitude was selected to assist the effects of the L294 analogs on the skeletal muscle inotropism. One muscle consisting of fast fibers (extensor digitorium longus-EDL) and the other of slow fibers (soleus-SOL) taken from mice were selected for this purpose. Differences in the timing of the twitches between the fast and slow muscles are shown at the faster recording speed. […] Washing the preparation with Krebs solution caused a partial reversion of the effects induced by the L786.

In assay [3] the test system is rat aorta rings with preserved endothelium. Description: KCl-induced contracture in aorta rings with preserved endothelium. In kind it is cell-based. As to conditions: KCl 40 mM; for amplitude of the KCl contracture, with endothelium: 200 μM stated for L790; for IC50: Rattus norvegicus, with endothelium, six experiments, read-out: CI50 (μM) Average ± SEM. The procedure: (§3) Once the experiments have been carried out, the findings were subject to statistical analyses being expressed in average ±SEM as a percentage of the control value, and graphs were drawn up using the Sigma Plot 5.0 program to represent the data obtained. For the statistical analysis of the effects on the different muscle tissues, the difference was assessed among the concentrations of the same derivative, using the “t” Student test. In order to ascertain the difference among the derivatives, the one-way ANOVA test was used. The differences were considered as significant for p<0.05. The Cl50 was expressed as an average ±SEM of the values obtained for each experiment through non-linear regression based on the y=yo+ae^−bx equation.
(§4) Male Wistar rats weighing between 240-280 grams were sacrificed through dislocation of the cervical column under anesthesia using ethyl ether. The aorta artery was removed and transferred to a Petri dish containing modified Tyrode's solution whose composition is described in Table 3 below, where the vessel was cleaned and the connective tissue was removed. According to the scheduled Experiment Protocol, the vascular endothelium was removed mechanically with the assistance of a polyethylene rod. The artery was divided into rings with a width of 2-3 mm. Two hooks were placed in the wall of the vessel in order to record the tension generated by the muscle in a transversal direction. To do so, one of the hooks was tied to a fixed point in the chamber and the other to a power transducer (FT 03) for recording the isometric tension. The tension generated by the muscle was transformed into a digitized electric signal (Digidata 1322A) and stored in a computer for subsequent analysis using the Axoscope 8.0 program (Axon Instruments, Inc). The chamber was filled with Krebs solution, oxygenated and kept at a temperature of 37° C.
(§5) After stabilizing the preparation, approximately 120 minutes, the Experiment Protocol began. Initially, in order to identify the presence or absence of the vascular endothelium, the preparation was exposed to phenylephrine (10 μM) and when the contracture in response to this substance was stabilized, acetylcholine (10 μM) was added to the nutrient solution. Relaxation of over 80% in response to the acetylcholine indicated the full integrity of the endothelium and relaxation of less than 10% indicated the absence of endothelium. The tissues in which the relaxation intensity fell between >10% and <80% were discarded. In order to investigate the vasodilator effect of the different L294 analogs, they were added to the experiment chambers in rising concentration after the contracture stabilization of the vessel induced by phenylephrine. The tension registered after treatment with each of the L294 analog concentrations was normalized as a function of the amplitude of the contracture triggered by phenylephrine. For the purpose of comparing the potency of some of the L294 analogs, the Cl50 was determined for each experiment using the y=yo+ae^−bx equation and their mean was used for the statistical analysis.
The effects of the L294 analogs were investigated in rat aorta rings with preserved endothelium whose contracture was induced by increasing the extra-cellular concentration of KCl to 40 mM. Of the seven L294 analogs, this test was carried out only with the L785, L786, L789 and L790, in this group of experiments.

The subject of assay [4] is extensor digitorium longus (EDL) muscle. Description: Electrically induced twitch amplitude in fast-fiber skeletal muscle (EDL). The assay is classed as cell-based, mice. The procedure: as §1, §2
Assay [5] concerns rat aorta rings with the vascular endothelium preserved. The assay can be described thus: Phenylephrine-induced contracture in aorta rings with preserved endothelium. In kind it is cell-based. As to conditions: phenylephrine 10 μM; for IC50: Rattus norvegicus, with endothelium, six experiments, read-out: CI50 (μM) Average ± SEM. The procedure:
as §3, §4, §5

On to `CN(/N=C/c1cccs1)C(=O)c1ccc2c(c1)OCO2` [L785, 1,3-Benzodioxol-5-carboxylic acid, N-methyl-N′-[1-thiophene-2-yl-meth-(E)-ylidene]-hydrazide], for which the “muscle relaxation effect on trachea rings” value in assay [1] is “significant dose-dependent muscle relaxation effect”. Besides, in assay [2], the “SOL twitch amplitude 200 μM (% of the control)” value is listed as 28.4±6.6 % of the control and the “SOL twitch amplitude 30 min-Washing (% of the control)” value is listed as 37.9 ± 9.6 % of the control. Besides, in assay [3], the “amplitude of the KCl contracture, with endothelium” value was 8.1±3.8 % of the control and the IC50 came to 34.1 ± 6.3 µM. Also, in assay [4], the “EDL twitch amplitude 200 μM (% of the control)” value is reported as 31.6±4.7 % of the control. For the same molecule, in assay [4] (30 min after washing), the “EDL twitch amplitude 30 min-Washing (% of the control)” value is recorded as 36.4 ± 4.5 % of the control. Moreover, the IC50 in assay [5] came out at 10.2 ± 0.5 µM.

As for `O=C(c1ccc2c(c1)OCO2)N(Cc1ccccc1)/N=C/c1cccs1` [L786, 1,3-Benzodioxol-5-carboxylic acid, N-benzyl-N′-[1-thiophene-2-yl-meth-(E)-ylidene]-hydrazide], the “amplitude of the acetylcholine-induced contracture of trachea rings” value in assay [1] (200 μM) was 25.3±12.1 % of the control. For the same molecule, the “muscle relaxation effect on trachea rings” value in assay [1] is listed as “The same effect was not observed”. For the same molecule, the “effect on SOL muscle twitches” value in assay [2] (50 μM, result in words) was “reduction in the amplitude and an extension in the duration of the muscle twitches”. Moreover, in assay [2], the “SOL twitch amplitude 200 μM (% of the control)” value is reported as 61.9±5.5 % of the control and the “SOL twitch amplitude 30 min-Washing (% of the control)” value is on record as 77.0 ± 10.3 % of the control. For the same molecule, in assay [3], the “amplitude of the KCl contracture, with endothelium” value is reported as 51.1±2.8 % of the control and the IC50 is 127 ± 13.7 µM. Besides, the “effect on EDL muscle twitches” value in assay [4] (50 μM, result in words) is “reduction in the amplitude and an extension in the duration of the muscle twitches”. Also, in assay [4], the “EDL twitch amplitude 200 μM (% of the control)” value is 28.7±9.9 % of the control. Besides, in assay [5], the IC50 was 134 ± 31 µM and the “maximum inhibition levels of phenylephrine contracture, with endothelium” value was found to be 34.5±7.6%.
